Numbered stars: 1 amine (or outer) side, 2 acyl side, 3 side chain; on linkers, the order of the positions; unused ones are H or OH. Square brackets hold non-standard residues; d marks the D form. Side chains are listed from the residue outwards. Peptide text beside a SMILES is read from it. * marks the point of attachment. C18 diacid = O=C(O)CCCCCCCCCCCCCCCCC(=O)*; αMePhe(2-F) = C[C@](N)(Cc1ccccc1F)C(=O)O; γGlu = O=C(O)[C@H](CCC(=O)[*:2])N[*:1]; αMeF = C[C@](N)(Cc1ccccc1)C(=O)O; AEEA = NCCOCCOCC(=O)O; Aib = CC(C)(N)C(=O)O
Columns and labels:
[1] = biological target: human GLP-1 receptor (GLP-1R) (Homo sapiens, UniProt P43220); test: cAMP pharmacological functional assay in presence of casein, hGLP-1R; type: cell-based; details: HEK293 cells expressing hGLP-1R, 0.1% Casein, geometric mean; read-out: hGLP1R cAMP Rel EC50 nM (SEM, n)
Sequence of human GLP-1 receptor (GLP-1R) (P43220 24-463): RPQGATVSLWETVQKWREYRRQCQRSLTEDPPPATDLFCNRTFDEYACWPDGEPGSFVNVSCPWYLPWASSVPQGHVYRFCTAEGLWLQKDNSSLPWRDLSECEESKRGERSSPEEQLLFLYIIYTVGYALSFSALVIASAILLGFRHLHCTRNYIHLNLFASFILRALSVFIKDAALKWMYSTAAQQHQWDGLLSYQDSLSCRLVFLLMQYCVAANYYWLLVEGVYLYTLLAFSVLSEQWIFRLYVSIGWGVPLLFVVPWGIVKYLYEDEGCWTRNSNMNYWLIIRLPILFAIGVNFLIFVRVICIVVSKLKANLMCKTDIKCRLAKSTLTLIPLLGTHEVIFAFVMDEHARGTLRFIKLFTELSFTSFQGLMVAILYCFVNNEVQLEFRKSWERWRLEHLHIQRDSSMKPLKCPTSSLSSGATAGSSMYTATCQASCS

[2] = biological target: T1, gastric inhibitory peptide receptor (GIPR) (Homo sapiens, UniProt P48546); test: cAMP pharmacological functional assay in presence of casein, hGIPR; type: cell-based; details: HEK293 cells expressing hGIPR, 0.1% Casein, geometric mean; read-out: hGIPR cAMP Rel EC50 nM (SEM, n)
T1 sequence (P48546 22-466): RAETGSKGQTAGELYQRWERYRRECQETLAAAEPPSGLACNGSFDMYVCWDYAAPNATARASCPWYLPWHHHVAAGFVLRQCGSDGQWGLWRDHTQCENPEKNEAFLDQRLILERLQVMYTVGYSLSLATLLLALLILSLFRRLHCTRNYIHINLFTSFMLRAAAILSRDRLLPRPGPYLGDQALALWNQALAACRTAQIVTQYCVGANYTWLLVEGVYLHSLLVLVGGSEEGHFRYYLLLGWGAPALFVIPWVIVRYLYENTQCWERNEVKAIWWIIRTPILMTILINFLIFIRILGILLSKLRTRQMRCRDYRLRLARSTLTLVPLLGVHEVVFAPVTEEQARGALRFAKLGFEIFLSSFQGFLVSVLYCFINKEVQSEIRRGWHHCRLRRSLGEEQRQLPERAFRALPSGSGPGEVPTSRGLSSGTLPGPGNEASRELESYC

human Gcg receptor = biological target: T2, human Gcg receptor (Homo sapiens, UniProt P47871); test: [125I]-Glucagon binding (SPA), human Gcg receptor; details: read-out: hGLcgR Ki, nM (SEM, n)
T2 construct: expressed in transfected cells; crude membranes
T2 sequence (P47871 26-477): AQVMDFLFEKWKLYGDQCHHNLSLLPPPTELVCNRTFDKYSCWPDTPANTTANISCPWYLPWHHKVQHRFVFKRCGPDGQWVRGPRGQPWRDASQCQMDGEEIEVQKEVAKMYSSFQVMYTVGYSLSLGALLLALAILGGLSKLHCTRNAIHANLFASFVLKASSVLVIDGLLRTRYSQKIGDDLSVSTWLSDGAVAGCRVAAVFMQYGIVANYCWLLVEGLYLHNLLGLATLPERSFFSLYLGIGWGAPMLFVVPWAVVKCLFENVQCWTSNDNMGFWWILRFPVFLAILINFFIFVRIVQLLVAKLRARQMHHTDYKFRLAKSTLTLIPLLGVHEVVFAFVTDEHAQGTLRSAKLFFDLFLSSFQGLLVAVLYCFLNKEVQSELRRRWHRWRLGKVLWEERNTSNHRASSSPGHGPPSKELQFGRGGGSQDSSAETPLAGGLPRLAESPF
Summary of the method: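 Scintillation counts are taken after membranes and WGA beads incubate and settle for 12 hours at room temperature. Buffer is 25 mM HEPES, pH 7.4, with CaCl2, MgCl2, bacitracin and Tween-20. Ki values, from four-parameter IC50 fits, are geometric means over independent days.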

human GIP receptor = biological target: T3, human GIP receptor (Homo sapiens, UniProt P48546); test: [125I]-GIP binding (SPA), human GIP receptor; details: read-out: hGIPR Ki, nM (SEM, n)
T3 construct: expressed in transfected cells; crude membranes
T3 sequence (P48546 22-466): T1 sequence (P48546 22-466)

human GLP-1R = human GLP-1R (Homo sapiens, UniProt P43220); test: [125I]-GLP-1 binding (SPA), human GLP-1 receptor; design: expressed in transfected cells; crude membranes; details: read-out: hGLP1R Ki, (nM) (SEM, n)
Sequence of human GLP-1R (P43220 24-463): as the sequence (P43220 24-463) above
Summary of the method: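 Crude-membrane binding assay; one membrane prep included 1 mM MgCl2 and 25 units/ml DNAse I during lysis. Assay buffer at pH 7.4 contains 0.1% (w/v) bacitracin and 0.003% (w/v) TWEEN-20. Ki is reported as geometric mean.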

Row | EC50 [1] | EC50 [2] | Ki (human Gcg receptor) | Ki (human GIP receptor) | Ki (human GLP-1R) | Structure (SMILES)
1 | 0.033 nM | 0.0389 nM | 64.1 nM | 0.0264 nM | 1.04 nM | CC[C@H](C)[C@H](NC(=O)[C@H](CC(C)C)NC(=O)[C@H](Cc1ccc(O)cc1)NC(=O)[C@H](CCC(=O)O)NC(=O)[C@@H](NC(=O)[C@H](Cc1ccccc1)NC(=O)[C@H](C)NC(=O)C(C)(C)NC(=O)[C@H](CCC(N)=O)NC(=O)[C@H](C)NC(=O)[C@H](CCCCNC(=O)COCCOCCNC(=O)COCCOCCNC(=O)CC[C@H](NC(=O)CCCCCCCCCCCCCCCCC(=O)O)C(=O)O)NC(=O)[C@H](CCCCN)NC(=O)[C@H](CC(=O)O)NC(=O)[C@H](CC(C)C)NC(=O)[C@H](CC(C)C)NC(=O)[C@@H](NC(=O)[C@H](CO)NC(=O)[C@H](Cc1ccc(O)cc1)NC(=O)[C@H](CC(=O)O)NC(=O)[C@H](CO)NC(=O)[C@@H](NC(=O)[C@](C)(Cc1ccccc1)NC(=O)[C@@H](NC(=O)CNC(=O)[C@H](CCC(=O)O)NC(=O)C(C)(C)NC(=O)[C@@H](N)Cc1ccc(O)cc1)[C@@H](C)O)[C@@H](C)O)[C@@H](C)CC)[C@@H](C)CC)C(=O)N[C@@H](C)C(=O)NCC(=O)NCC(=O)N1CCC[C@H]1C(=O)N[C@@H](CO)C(=O)N[C@@H](CO)C(=O)NCC(N)=O [Example 309] (H-Y[Aib]EGT[αMeF]TSDYSILLDKK([AEEA-AEEA-γGlu-C18 diacid])AQ[Aib]AFIEYLIAGGPSSG-NH2)
2 | 0.0283 nM | 0.0176 nM | 174 nM | 0.0315 nM | 1.7 nM | CC[C@H](C)[C@H](NC(=O)[C@H](CC(C)C)NC(=O)[C@H](Cc1ccc(O)cc1)NC(=O)[C@H](CCC(=O)O)NC(=O)[C@@H](NC(=O)[C@H](Cc1ccccc1)NC(=O)[C@H](CCC(=O)O)NC(=O)C(C)(C)NC(=O)[C@H](CCC(N)=O)NC(=O)[C@H](C)NC(=O)[C@H](CCCCNC(=O)COCCOCCNC(=O)COCCOCCNC(=O)CC[C@H](NC(=O)CCCCCCCCCCCCCCCCC(=O)O)C(=O)O)NC(=O)[C@H](CCCCN)NC(=O)[C@H](CC(=O)O)NC(=O)[C@H](CC(C)C)NC(=O)[C@H](CC(C)C)NC(=O)[C@@H](NC(=O)[C@H](CO)NC(=O)[C@H](Cc1ccc(O)cc1)NC(=O)[C@H](CC(=O)O)NC(=O)[C@H](CO)NC(=O)[C@@H](NC(=O)[C@](C)(Cc1ccccc1)NC(=O)[C@@H](NC(=O)CNC(=O)[C@H](CCC(=O)O)NC(=O)C(C)(C)NC(=O)[C@@H](N)Cc1ccc(O)cc1)[C@@H](C)O)[C@@H](C)O)[C@@H](C)CC)[C@@H](C)CC)C(=O)N[C@@H](C)C(=O)NCC(=O)NCC(=O)N1CCC[C@H]1C(=O)N[C@@H](CO)C(=O)N[C@@H](CO)C(=O)NCC(N)=O [Example 310] (H-Y[Aib]EGT[αMeF]TSDYSILLDKK([AEEA-AEEA-γGlu-C18 diacid])AQ[Aib]EFIEYLIAGGPSSG-NH2; N-terminus assumed)
3 | 0.0393 nM | 0.0334 nM | 115 nM | 0.0497 nM | 11.5 nM | CC[C@H](C)[C@H](NC(=O)[C@H](CC(C)C)NC(=O)[C@H](Cc1ccc(O)cc1)NC(=O)[C@H](CCC(=O)O)NC(=O)[C@@H](NC(=O)[C@H](Cc1ccccc1)NC(=O)[C@H](C)NC(=O)C(C)(C)NC(=O)[C@H](CCC(N)=O)NC(=O)[C@H](C)NC(=O)[C@H](CCCCNC(=O)COCCOCCNC(=O)COCCOCCNC(=O)CC[C@H](NC(=O)CCCCCCCCCCCCCCCCC(=O)O)C(=O)O)NC(=O)[C@H](CCC(=O)O)NC(=O)[C@H](CC(=O)O)NC(=O)[C@H](CC(C)C)NC(=O)[C@H](CC(C)C)NC(=O)[C@@H](NC(=O)[C@H](CO)NC(=O)[C@H](Cc1ccc(O)cc1)NC(=O)[C@H](CC(=O)O)NC(=O)[C@H](CO)NC(=O)[C@@H](NC(=O)[C@](C)(Cc1ccccc1F)NC(=O)[C@@H](NC(=O)CNC(=O)[C@H](CCC(=O)O)NC(=O)C(C)(C)NC(=O)[C@@H](N)Cc1ccc(O)cc1)[C@@H](C)O)[C@@H](C)O)[C@@H](C)CC)[C@@H](C)CC)C(=O)N[C@@H](CCC(=O)O)C(=O)NCC(=O)NCC(=O)N1CCC[C@H]1C(=O)N[C@@H](CO)C(=O)N[C@@H](CO)C(=O)NCC(N)=O [Example 311] (H-Y[Aib]EGT[αMePhe(2-F)]TSDYSILLDEK([AEEA-AEEA-γGlu-C18 diacid])AQ[Aib]AFIEYLIEGGPSSG-NH2)

The next lines start with the compound.

Row | Structure (SMILES) | EC50 [1] | EC50 [2] | Ki (human Gcg receptor) | Ki (human GIP receptor) | Ki (human GLP-1R)
4 | CC[C@H](C)[C@H](NC(=O)[C@H](CC(C)C)NC(=O)[C@H](Cc1ccc(O)cc1)NC(=O)[C@H](CCC(=O)O)NC(=O)[C@H](CC(C)C)NC(=O)[C@H](Cc1ccccc1)NC(=O)[C@H](C)NC(=O)C(C)(C)NC(=O)[C@H](CCC(N)=O)NC(=O)[C@H](C)NC(=O)[C@H](CCCCNC(=O)COCCOCCNC(=O)COCCOCCNC(=O)CC[C@H](NC(=O)CCCCCCCCCCCCCCCCC(=O)O)C(=O)O)NC(=O)[C@H](CCCCN)NC(=O)[C@H](CC(=O)O)NC(=O)[C@H](CC(C)C)NC(=O)[C@H](CC(C)C)NC(=O)[C@@H](NC(=O)[C@H](CO)NC(=O)[C@H](Cc1ccc(O)cc1)NC(=O)[C@H](CC(=O)O)NC(=O)[C@H](CO)NC(=O)[C@@H](NC(=O)[C@H](Cc1ccccc1)NC(=O)[C@@H](NC(=O)CNC(=O)[C@H](CCC(=O)O)NC(=O)C(C)(C)NC(=O)[C@@H](N)Cc1ccc(O)cc1)[C@@H](C)O)[C@@H](C)O)[C@@H](C)CC)C(=O)N[C@@H](CCC(=O)O)C(=O)NCC(=O)NCC(=O)N1CCC[C@H]1C(=O)N[C@@H](CO)C(=O)N[C@@H](CO)C(=O)NCC(N)=O [Example 299] (H-Y[Aib]EGTFTSDYSILLDKK([AEEA-AEEA-γGlu-C18 diacid])AQ[Aib]AFLEYLIEGGPSSG-NH2) | 2.54 nM | 0.932 nM | > 1040 nM | 0.734 nM | 54.3 nM
5 | CC[C@H](C)[C@H](NC(=O)[C@H](CC(C)C)NC(=O)[C@H](Cc1ccc(O)cc1)NC(=O)[C@H](CCC(=O)O)NC(=O)[C@@H](NC(=O)[C@H](Cc1ccccc1)NC(=O)[C@H](C)NC(=O)C(C)(C)NC(=O)[C@H](CCC(N)=O)NC(=O)[C@H](C)NC(=O)[C@H](CCCCNC(=O)COCCOCCNC(=O)COCCOCCNC(=O)CC[C@H](NC(=O)CCCCCCCCCCCCCCCCC(=O)O)C(=O)O)NC(=O)[C@H](CCC(=O)O)NC(=O)[C@H](CC(=O)O)NC(=O)[C@H](CC(C)C)NC(=O)[C@H](CC(C)C)NC(=O)[C@@H](NC(=O)[C@H](CO)NC(=O)[C@H](Cc1ccc(O)cc1)NC(=O)[C@H](CC(=O)O)NC(=O)[C@H](CO)NC(=O)[C@@H](NC(=O)[C@](C)(Cc1ccccc1)NC(=O)[C@@H](NC(=O)CNC(=O)[C@H](CCC(=O)O)NC(=O)C(C)(C)NC(=O)[C@@H](N)Cc1ccc(O)cc1)[C@@H](C)O)[C@@H](C)O)[C@@H](C)CC)[C@@H](C)CC)C(=O)N[C@@H](CCC(=O)O)C(=O)NCC(=O)NCC(=O)N1CCC[C@H]1C(=O)N[C@@H](CO)C(=O)N[C@@H](CO)C(=O)NCC(N)=O [Example 307] (H-Y[Aib]EGT[αMeF]TSDYSILLDEK([AEEA-AEEA-γGlu-C18 diacid])AQ[Aib]AFIEYLIEGGPSSG-NH2) | 0.0437 nM | 0.0285 nM | 117 nM | 0.0773 nM | 5.1 nM
6 | CC[C@H](C)[C@H](NC(=O)[C@H](CC(C)C)NC(=O)[C@H](Cc1ccc(O)cc1)NC(=O)[C@H](CCC(=O)O)NC(=O)[C@@H](NC(=O)[C@H](Cc1ccccc1)NC(=O)[C@H](CCC(=O)O)NC(=O)C(C)(C)NC(=O)[C@H](CCC(N)=O)NC(=O)[C@H](C)NC(=O)[C@H](CCCCNC(=O)COCCOCCNC(=O)COCCOCCNC(=O)CC[C@H](NC(=O)CCCCCCCCCCCCCCCCC(=O)O)C(=O)O)NC(=O)[C@H](CCCCN)NC(=O)[C@H](CC(=O)O)NC(=O)[C@H](CC(C)C)NC(=O)[C@H](CC(C)C)NC(=O)[C@@H](NC(=O)[C@H](CO)NC(=O)[C@H](Cc1ccc(O)cc1)NC(=O)[C@H](CC(=O)O)NC(=O)[C@H](CO)NC(=O)[C@@H](NC(=O)[C@](C)(Cc1ccccc1)NC(=O)[C@@H](NC(=O)CNC(=O)[C@H](CCC(=O)O)NC(=O)C(C)(C)NC(=O)[C@@H](N)Cc1ccc(O)cc1)[C@@H](C)O)[C@@H](C)O)[C@@H](C)CC)[C@@H](C)CC)C(=O)N[C@@H](CCC(=O)O)C(=O)NCC(=O)NCC(=O)N1CCC[C@H]1C(=O)N[C@@H](CO)C(=O)N[C@@H](CO)C(=O)NCC(N)=O [Example 308] (H-Y[Aib]EGT[αMeF]TSDYSILLDKK([AEEA-AEEA-γGlu-C18 diacid])AQ[Aib]EFIEYLIEGGPSSG-NH2) | 0.0392 nM | 0.0262 nM | 94.2 nM | 0.0288 nM | 1.01 nM
